Here are results for 125 molecules from the OPERA property sets (Mansouri et al. 2018).

Take `O=C1NC(=S)SC1=CC=Cc1ccc([N+](=O)[O-])o1`: the logP amounted to 0.93.

Consider `COC12C(COC(N)=O)C3=C(C(=O)C(C)=C(Nc4cccnc4)C3=O)N1CC1NC12` (stereo not given), for which the logP turned out to be 0.52.

In turn, `CCOC(=O)C(C#N)=NNc1cc(Cl)c(Cl)c(Cl)c1` came in with a logP of 5.03.

Consider `COc1cc(C=C[N+](=O)[O-])ccc1O`, for which the logP is 1.88.

Take `COC(=O)COc1c(OC)cc(Cc2cnc(N)nc2N)cc1OC`: the logP was found to be 0.55.

Turning to `CCc1ccc2c(c1)C(c1ccccc1F)=NCC(=O)N2`, the logP was 2.92.

Turning to `NS(=O)(=O)c1nc2ccc(O)cc2s1`, the logP came out at 1.13.

`O=S1(=O)NC(C(Cl)Cl)=Nc2cc(Cl)ccc21` had a logP of 1.81.

`COc1cc(Cc2cnc(N)nc2N)cc(OC)c1C#N` displayed a logP of 1.39.

For `Cc1nnc(C=NO)s1`, the logP was determined as 0.78.

On to `CCOP(=S)(OCC)Oc1ccc(SC)c(Cl)c1`, for which the logP worked out at 5.06.

As to `S=C=Nc1ccc2cc3ccccc3cc2c1`, the logP was found to be 5.7.

The molecule `CCCCC1OC(=O)c2cc(Cl)ccc21` (stereo not given) displayed a logP of 3.53.

The molecule `CCN(CC)CCNC(=O)c1cc(F)ccc1OC` had a logP of 2.62.

Molecule `O=C1CN=C(c2ccccc2F)c2cc(Cl)ccc2N1` came in with a logP of 2.7.

In turn, `O=[N+]([O-])C=Cc1ccc([N+](=O)[O-])cc1` gave a logP of 1.89.

In turn, `CCCCCCOn1c(=O)[nH]c(C)c(Br)c1=O` registered a logP of 2.48.

Molecule `O=C1CN=C(c2ccccc2Cl)c2cc(Cl)ccc2N1` showed a logP of 3.15.

As for `COc1cc(C)nn1-c1nc(C)cc(C)n1`, the logP was 0.73.

As for `Clc1ccc(N=C2NCCN2)c(Cl)c1`, the logP was found to be 1.96.

For the molecule `CC1COCCN1N=O` (stereo not given), the logP was -0.03.

Consider `CCCCCCc1nnc(N)o1`, for which the logP is 1.43.

In the case of `CC(C)CNCNC(=O)c1ccccc1`, the logP was 1.73.

The molecule `CCC(C)c1nnc(N)o1` (stereo not given) showed a logP of 0.62.

`COP(=O)(NC(C)(C)C)Oc1cc(Cl)c(Cl)cc1Cl` (stereo not given) gave a logP of 3.83.

The molecule `COC1=C(C)C(=O)c2ccccc2C1=O` registered a logP of 2.14.

In turn, `CCOC(=O)CN(C(=O)CCl)c1ccccc1` gave a logP of 1.6.

The molecule `CC1=Nc2ccc(S(=O)(=O)N(C)C)cc2S(=O)(=O)N1` came in with a logP of 0.32.

The molecule `Cn1cnc([N+](=O)[O-])c1S(=O)(=O)Oc1ccccc1` came in with a logP of 1.08.

Consider `COc1ccc(Cc2cnc(N)nc2N)cc1OCc1ccccc1`, for which the lipophilicity (logP) was found to be 2.44.

For the molecule `CNc1ccc(S(N)(=O)=O)cc1`, the logP is 0.08.

As for `CC(=O)N(CCO)c1c(I)c(C(=O)NCC(O)CO)c(I)c(C(=O)NCC(O)CO)c1I` (stereo not given), the logP is -2.47.

For `CCOC(=O)c1c(OC)cc(Cc2cnc(N)nc2N)cc1OC`, the logP is 1.25.

Regarding `CCOC(=O)C(C#N)=NNc1ccc([N+](=O)[O-])cc1[N+](=O)[O-]`, the logP came to 4.14.

`COc1cc(OC)c(N=C2NCCN2)cc1Cl`: the logP was found to be 1.38.

For the molecule `C=Cc1cnc([N+](=O)[O-])n1C`, the logP came to 0.64.

`CC/N=C(N)/N=C(\N)Nc1ccc(Cl)cc1`: the logP was 2.14.

Consider `Cc1cc(C)cc(OC2OC(CO)C(O)C(O)C2O)c1` (stereo not given), for which the logP was 0.26.

In the case of `Cc1cc(=O)n2c(C)cccc2n1`, the logP came to 1.05.

Molecule `CNC(=O)NCCSCc1[nH]cnc1C` yielded a logP of -0.06.

Turning to `CCCCN(SN(C)C(=O)ON=C(C)SC)C(C)=O`, the logP stood at 2.4.

As for `O=C(O)COc1ccccc1-c1ccccc1`, the logP stood at 2.83.

`NS(=O)(=O)c1cc2c(cc1[N+](=O)[O-])NCNS2(=O)=O`: the logP was 0.2.

`O=S(=O)(Nc1ccc(Cl)cc1Cl)C(F)(F)F`: the logP amounted to 3.88.

Consider `O=NN(CCCl)C(=O)NC1CCC(O)CC1` (stereo not given), for which the logP came to 1.11.

In turn, `O=NN(CCCl)C(=O)NC1CSCSC1` showed a logP of 2.08.

In turn, `O=S(=O)(Nc1cn[nH]c1)c1ccccc1` had a logP of 0.87.

On to `Nc1nc(N)nc(-c2cccc(Cl)c2)n1`, for which the logP is 2.33.

For `O=NN1CCCCCCCC1`, the logP came out at 2.04.

The molecule `Cc1ncc([N+](=O)[O-])n1CC(O)CCl` (stereo not given) yielded a logP of 0.6.

`O=c1cn[nH]c2ccccc12` registered a logP of 0.82.

Turning to `CC1(C)N=C(N)N=C(N)N1c1ccc(N)cc1`, the logP was -0.59.

Take `CN(C)N=Nc1ccc(S(N)(=O)=O)cc1`: the logP was 1.06.

On to `Cc1cnc(Cc2ccc(O)cc2)s1`, for which the logP came to 2.62.

`CC1(C)SC2C(NC(=O)C(NS(C)(=O)=O)c3ccccc3)C(=O)N2C1C(=O)O` (stereo not given) showed a logP of 0.95.

On to `S=C=NCc1ccc2ccccc2c1`, for which the logP came out at 4.42.

`CC(=O)NNC(=O)c1ccccn1` returned a logP of -0.57.

`CN=C1SC(=Cc2ccc([N+](=O)[O-])o2)C(=O)N1C` showed a logP of 1.42.

Turning to `CN1C(=O)CN=C(c2ccccc2F)c2cc(N)ccc21`, the logP is 1.3.

For `CNP(=O)(OC)Oc1ccc(SC)cc1` (stereo not given), the logP came out at 1.81.

For the molecule `CC(=O)OCC1=C(C(=O)O)N2C(=O)C(NC(=O)CSc3cc(Cl)ccc3Cl)C2SC1` (stereo not given), the logP was found to be 1.66.

On to `Cc1ccccc1C(=O)NN`, for which the logP is 0.22.

Consider `COc1cc(Cc2cnc(N)nc2N)cc(C)c1OC`, for which the logP worked out at 1.62.

`CC(=O)NNC(=O)c1ccccc1N=NN(C)C` came in with a logP of 1.18.

Molecule `CCCCCCNC(=O)CNC(=O)C=[N+]=[N-]` gave a logP of 1.51.

As for `CS(=O)(=O)c1cccc(NS(=O)(=O)C(F)(F)F)c1`, the logP stood at 1.85.

The molecule `CC(=O)Nc1cccc(OC(C)=O)c1` had a logP of 1.03.

`Nc1nc(N)nc(-c2ccc(Cl)cc2Cl)n1` gave a logP of 2.07.

`CCCCCCCC[n+]1ccc(C)cc1C.[I-]`: the logP is -0.57.

For the molecule `CCCCO[N+](=O)[O-]`, the logP is 2.15.

The molecule `CNC(=O)C(NC(C)=O)C(C)C` (stereo not given) displayed a logP of -0.35.

Turning to `CCOc1cc(Cc2cnc(N)nc2N)cc(OCC)c1C(C)(C)O`, the logP was 2.46.

Molecule `C=CCN1C(=O)SC(=Cc2ccc([N+](=O)[O-])o2)C1=O` came in with a logP of 2.22.

The molecule `CC(C)(C)c1cccc(OC2OC(CO)C(O)C(O)C2O)c1` (stereo not given) registered a logP of 1.01.

Turning to `CCCCC(=O)NN`, the logP is -0.11.

`O=C1CCC(=O)N1c1ccccc1Br`: the logP worked out at 0.65.

As for `O=C(Nc1ccccc1)c1cc(N2CC2)c([N+](=O)[O-])cc1[N+](=O)[O-]`, the logP came out at 2.23.

Regarding `COc1cc(Cc2cnc(N)nc2N)ccc1SC`, the logP was 1.92.

On to `CCCC1(CC)C(=O)NC(=O)N(C)C1=O` (stereo not given), for which the logP was determined as 1.65.

Molecule `CC(=O)Cn1ccnc1[N+](=O)[O-]` gave a logP of -0.34.

Consider `Clc1cc(Cl)cc(-c2c(Cl)c(Cl)cc(Cl)c2Cl)c1`, for which the logP stood at 7.37.

In turn, `CN(C)c1ccc(C(N)=O)cc1` returned a logP of 1.14.

As to `COc1ccc(Cc2ccccc2C(N)=O)cc1`, the logP came to 1.63.

`CNC(=O)Oc1cccc(C(=O)OC)c1` registered a logP of 1.42.

Consider `CSC(C)=NOC(=O)N(C)SN(C)C(=O)N(C)C`, for which the logP was 1.2.

For the molecule `CCOC(=O)C(=Cc1cccc(F)c1)C(=O)OCC`, the logP worked out at 3.19.

`CC1CN(N=O)CCN1N=O` (stereo not given) registered a logP of -0.28.

Consider `CCN1C(=N)SC(=Cc2ccc([N+](=O)[O-])o2)C1=O`, for which the logP came to 1.44.

`COC12C(COC(N)=O)C3=C(C(=O)C(C)=C(N)C3=O)N1CC1C2N1C(=O)OCc1ccccc1` (stereo not given) registered a logP of 1.34.

Consider `CSC(C)=NOC(=O)N(C)SN(C)C(=O)c1ccc(C)cc1`, for which the logP came to 2.5.

For the molecule `CCCC(=O)NC(=O)NC(=O)CCC`, the lipophilicity (logP) came to 1.4.

In the case of `CCN(CC)c1ccc(CO)cc1`, the logP was found to be 2.29.

Molecule `O=[N+]([O-])C=Cc1ccc(O)cc1` yielded a logP of 2.12.

In the case of `CCCCOc1cc(Cc2cnc(N)nc2N)c(C)cc1OC`, the logP turned out to be 2.78.

`CC1=Nc2ccc(Br)cc2S(=O)(=O)N1` came in with a logP of 1.37.

As to `CN(C)Cc1ccco1`, the logP amounted to 1.19.

The molecule `COC(=O)C(C#N)=NNc1ccccc1C(F)(F)F` displayed a logP of 3.7.

`COC(=O)C(C#N)=NNc1ccc(Cl)cc1C(F)(F)F` had a logP of 4.66.

Consider `COP(N)(=O)Oc1cc(Cl)c(Cl)cc1Cl` (stereo not given), for which the logP is 2.53.

Take `COc1cc(Cc2cnc(N)nc2N)cc(OC)c1C`: the logP stood at 2.14.

As for `COc1nc(C)cc(-n2[nH]c(C)cc2=O)n1`, the logP turned out to be 1.03.

In the case of `CC1=C(C(N)=O)SCCO1`, the lipophilicity (logP) was -0.22.

`Nc1nc(N)nc(-c2cc(Br)ccc2Br)n1`: the logP is 2.09.

Molecule `CCCNC1CC2CC1c1ccccc12` (stereo not given) yielded a logP of 3.3.

For `CC(=O)Oc1ccccc1F`, the logP was found to be 1.76.

On to `Oc1ccc(C(c2ccc(O)cc2)c2cccnc2)cc1`, for which the logP is 3.13.

`CC(N)Cc1ccc2c(c1)OCO2` (stereo not given) yielded a logP of 1.64.

`S=C=Nc1ccc(C=Cc2ccccc2)cc1` returned a logP of 5.85.

Molecule `O=S(=O)(Nc1ccccc1)c1cccc2cccnc12` yielded a logP of 1.75.

With `CCN1CCCCCC1=O`, the logP came to 0.65.

In turn, `CN(C)C(=O)Cc1ccco1` gave a logP of 0.01.

`S=C=Nc1ccc(-c2ccc(N=C=S)cc2)cc1`: the logP is 5.5.

Take `COc1cc(-n2c(C)cc(=O)n2C)nc(C)n1`: the logP is 0.38.

With `COc1cc(Cc2cnc(N)nc2N)cc(OC)c1C(C)(C)O`, the logP worked out at 1.49.

In turn, `CCN1C(=O)CN=C(c2ccccc2)c2cc(Cl)ccc21` gave a logP of 3.21.

In turn, `Cc1[nH]c(=O)n(OCC(C)C)c(=O)c1Br` yielded a logP of 1.23.

In the case of `Clc1cc(Cl)c(-c2ccccc2)cc1Cl`, the logP was found to be 5.81.

As for `Cc1cc([N+](=O)[O-])c2ccccc2[n+]1[O-]`, the logP worked out at 1.25.

`N#CC(C#N)=C(c1ccccc1)c1ccccc1` came in with a logP of 3.55.

Molecule `CCOP(=O)(OCC)Oc1c(Cl)cc(SC)cc1Cl` displayed a log partition coefficient (logP) of 3.72.

`COCN1C(=O)C(O)N=C(c2ccccc2)c2cc(N)ccc21` (stereo not given) gave a logP of 0.75.

As to `O=C(c1ccccc1)c1ccc(N=C=S)cc1`, the log partition coefficient (logP) stood at 4.88.

Molecule `CCCCCCN(SN(C)C(=O)ON=C(C)SC)C(=O)c1ccccc1` gave a logP of 4.2.

`O=S(=O)(Nc1cccc(Cl)c1)C(F)(F)F`: the logP was 4.

On to `Clc1ccc(-c2ccc(Cl)c(Cl)c2Cl)c(Cl)c1`, for which the logP stood at 6.61.

As a reminder, the logP is a log measure of how a compound divides between an organic and an aqueous phase.
